# Source: patent US7462600B2, “Macrolides” (Pfizer Inc, priority 2004, dated 2008)
# What was measured:
# Format in all cases: cell-based
# [1] = system: Streptococcus pneumoniae 1175; conditions: Streptococcus pneumoniae 1175; microtiter broth dilution
# Outline: (§1)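 Where available, resistant strains were tested alongside the susceptible parent they derive from. The MIC, determined by tray-based broth dilution and NCCLS M100-S14 interpretation, served as the comparison value.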
# [2] = system: Streptococcus pneumoniae 1095; conditions: Streptococcus pneumoniae 1095; microtiter broth dilution
# Outline: as §1
# [3] = system: Streptococcus pyogenes 1079; test: MIC, microtiter broth dilution (NCCLS M100-S14), S. pyogenes 1079 (ermB); conditions: Streptococcus pyogenes 1079
# Outline: as §1
# [4] = system: Haemophilus influenzae 1218; test: MIC, microtiter broth dilution (NCCLS M100-S14), H. influenzae 1218 (susceptible); conditions: Haemophilus influenzae 1218
# Outline: as §1
# [5] = system: Streptococcus pneumoniae 1016; test: MIC, microtiter broth dilution (NCCLS M100-S14), S. pneumoniae 1016 (susceptible); conditions: Streptococcus pneumoniae 1016
# Outline: as §1
Compound,MIC S. pneumo. 1175 [1] [µg/mL],MIC S. pneumo. 1095 [2] [µg/mL],MIC S. pyogenes 1079 [3] [µg/mL],MIC H. influenzae 1218 [4] [µg/mL],MIC S. pneumo. 1016 [5] [µg/mL]
"CCC1OC(=O)C(C)C(=O)C(C)C(OC2OC(C)CC(N(C)C)C2O)C(C)(OC)CC(C)C(=O)C(C)C2N(C3CN(S(=O)(=O)c4cccc(-c5cc(C)no5)c4)C3)C(=O)OC12C (stereo not drawn) [Example 3.40, 3-descladinosyl-11,12-dideoxy-6-O-methyl-3-oxo-12,11-(oxycarbonyl-1(-(3-(3-methylisoxazol-5-yl)benzenesulfonyl)-azetidin-3-yl)-imino)-erythromycin A]",<0.06,<0.06,4,2,<0.06
"CCC1OC(=O)C(C)C(=O)C(C)C(OC2OC(C)CC(N(C)C)C2O)C(C)(OC)CC(C)C(=O)C(C)C2N(C3CN(S(=O)(=O)c4cccc(-c5ncon5)c4)C3)C(=O)OC12C (stereo not drawn) [Example 3.41, 3-descladinosyl-11,12-dideoxy-6-O-methyl-3-oxo-12,11-(oxycarbonyl-(1-(3-(1,2,4-oxadiazol-3-yl)benzenesulfonyl)-azetidin-3-yl)-imino)-erythromycin A]",<0.06,<0.06,8,0.25,<0.06
"CCC1OC(=O)C(C)C(=O)C(C)C(OC2OC(C)CC(N(C)C)C2O)C(C)(OC)CC(C)C(=O)C(C)C2N(C3CN(S(=O)(=O)c4ccc5c(c4)CC(=O)N5)C3)C(=O)OC12C (stereo not drawn) [Example 3.42, 3-descladinosyl-11,12-dideoxy-6-O-methyl-3-oxo-12,11-(oxycarbonyl-(1-(2-oxoindoline-5-sulfonyl)-azetidin-3-yl)-imino)-erythromycin A]",0.5,<0.06,2,2,<0.06
"CCC1OC(=O)C(C)C(=O)C(C)C(OC2OC(C)CC(N(C)C)C2O)C(C)(OC)CC(C)C(=O)C(C)C2N(C3CN(S(=O)(=O)c4ccc5oc(=O)[nH]c5c4)C3)C(=O)OC12C (stereo not drawn) [Example 3.43, 3-descladinosyl-11,12-dideoxy-6-O-methyl-3-oxo-12,11-(oxycarbonyl-(1-(2,3-dihydro-2-oxobenzo[d]oxazole-5-sulfonyl)-azetidin-3-yl)-imino)-erythromycin A]",0.5,<0.06,1,0.5,<0.06
"CCC1OC(=O)C(C)C(=O)C(C)C(OC2OC(C)CC(N(C)C)C2O)C(C)(OC)CC(C)C(=O)C(C)C2N(C3CN(S(=O)(=O)c4ccc(-n5cccn5)cc4)C3)C(=O)OC12C (stereo not drawn) [Example 3.44, 3-descladinosyl-11,12-dideoxy-6-O-methyl-3-oxo-12,11-(oxycarbonyl-(1-(4-(1H-pyrazol-1-yl)benzenesulfonyl)-azetidin-3-yl)-imino)-erythromycin A]",<0.06,<0.06,0.12,0.25,<0.06
"CCC1OC(=O)C(C)C(=O)C(C)C(OC2OC(C)CC(N(C)C)C2O)C(C)(OC)CC(C)C(=O)C(C)C2N(C3CN(S(=O)(=O)c4ccc(-c5csnn5)cc4)C3)C(=O)OC12C (stereo not drawn) [Example 3.45, 3-descladinosyl-11,12-dideoxy-6-O-methyl-3-oxo-12,11-(oxycarbonyl-(1-(4-(1,2,3-thiadiazol-4-yl)benzenesulfonyl)-azetidin-3-yl)-imino)-erythromycin A]",<0.06,<0.06,0.12,0.25,<0.06
"CCC1OC(=O)C(C)C(=O)C(C)C(OC2OC(C)CC(N(C)C)C2O)C(C)(OC)CC(C)C(=O)C(C)C2N(C3CN(S(=O)(=O)c4ccc(N5CCOCC5)c(F)c4)C3)C(=O)OC12C (stereo not drawn) [Example 3.46, 3-fluoro-4-morpholinobenzenesulfonyl]",<0.06,0.5,32,2,<0.06
"CCC1OC(=O)C(C)C(=O)C(C)C(OC2OC(C)CC(N(C)C)C2O)C(C)(OC)CC(C)C(=O)C(C)C2N(C3CN(S(=O)(=O)c4ccc(-n5nc(C)cc5C)cc4)C3)C(=O)OC12C (stereo not drawn) [Example 3.47, 4-(3,5-dimethyl-1H-pyrazol-1-yl)benzenesulfonyl]",<0.06,0.5,64,8,<0.06
"CCC1OC(=O)C(C)C(=O)C(C)C(OC2OC(C)CC(N(C)C)C2O)C(C)(OC)CC(C)C(=O)C(C)C2N(C3CN(S(=O)(=O)c4ccc(C#N)nc4)C3)C(=O)OC12C (stereo not drawn) [Example 3.48, 6-cyanopyridine-3-sulfonyl]",<0.06,1,>64.00,0.5,<0.06
CCC1OC(=O)C(C)C(=O)C(C)C(OC2OC(C)CC(N(C)C)C2O)C(C)(OC)CC(C)C(=O)C(C)C2N(C3CN(S(=O)(=O)c4cccc5c(C#N)cccc45)C3)C(=O)OC12C (stereo not drawn) [Example 3.49],<0.06,<0.06,0.5,0.5,<0.06
CCC1OC(=O)C(C)C(=O)C(C)C(OC2OC(C)CC(N(C)C)C2O)C(C)(OC)CC(C)C(=O)C(C)C2N(C3CN(S(=O)(=O)c4ccc(-n5cccn5)c(C#N)c4)C3)C(=O)OC12C (stereo not drawn) [Example 3.50],<0.06,<0.06,0.25,1,<0.06
"CCC1OC(=O)C(C)C(=O)C(C)C(OC2OC(C)CC(N(C)C)C2O)C(C)(OC)CC(C)C(=O)C(C)C2N(C3CN(S(=O)(=O)c4ccc(-c5nnn(C)n5)cc4)C3)C(=O)OC12C (stereo not drawn) [Example 3.51, 3-descladinosyl-11,12-dideoxy-6-O-methyl-3-oxo-12,11-(oxycarbonyl-(1-(4-(2-methyl-2H-tetrazol-5-yl)benzenesulfonyl)-azetidin-3-yl)-imino)-erythromycin A]",<0.06,<0.06,0.5,2,<0.06
"CCC1OC(=O)C(C)C(=O)C(C)C(OC2OC(C)CC(N(C)C)C2O)C(C)(OC)CC(C)C(=O)C(C)C2N(C3CN(S(=O)(=O)c4ccc(-n5cncn5)cc4)C3)C(=O)OC12C (stereo not drawn) [Example 3.52, 3-descladinosyl-11,12-dideoxy-6-O-methyl-3-oxo-12,11-(oxycarbonyl-(1-(4-(1H-1,2,4-triazol-1-yl)benzenesulfonyl)-azetidin-3-yl)-imino)-erythromycin A]",0.12,0.12,4,2,<0.06
"CCC1OC(=O)C(C)C(=O)C(C)C(OC2OC(C)CC(N(C)C)C2O)C(C)(OC)CC(C)C(=O)C(C)C2N(C3CN(S(=O)(=O)c4ccc(-n5ccnc5)c(C)c4)C3)C(=O)OC12C (stereo not drawn) [Example 3.53, 4-(1H-imidazol-1-yl)-3-methylbenzenesulfonyl]",0.25,<0.06,64,4,<0.06
"CCC1OC(=O)C(C)C(=O)C(C)C(OC2OC(C)CC(N(C)C)C2O)C(C)(OC)CC(C)C(=O)C(C)C2N(C3CN(S(=O)(=O)c4ccc(-c5nc6ccc(C)cc6s5)cc4)C3)C(=O)OC12C (stereo not drawn) [Example 3.54, 3-descladinosyl-11,12-dideoxy-4-O-methyl-3-oxo-12,11-(oxycarbonyl-(1-(4-(6-methylbenzo[d]thiazol-2-yl)benzenesulfonyl)-azetidin-3-yl)imino)-erythromycin A]",4,4,8,>64.00,<0.06
